The target in one data set is T1, FL-TDP1 (Homo sapiens, UniProt Q9NUW8).
T1 construct: either full-length TDP1 or Δ1-147TDP1 was diluted to 1×
Nature of the data set: FL-TDP1 FRET assay without TCEP (recifin A and analogues). The format is biochemical. As to conditions: for TDP1 inhibitory activity (FRET assay): TCEP omitted; for IC50: IC50 μM (FL-TDP1 inhibitory activity), 1 nM FL-TDP1, 0.25 μM substrate, T=15 min, 1XPBS pH 7.4, 80 mM KCl, -TCEP, high-test concentration 20 μM. Here is the method:
For these FRET assays, TCEP was omitted from the reaction buffer. Peptides were evaluated for FL-TDP1 inhibitory activity using an 8-pt, 10^0.5 dilution series at a high-test concentration of 20 μM. RXN conditions: 1 nM FL-TDP1, 0.25 μM substrate, T=15 min.; rxn buffer (1XPBS pH 7.4, 80 mM KCl) (-TCEP). See FIGS. 21A and 21B and FIG. 22.

The test system of data set [1] is T2, recifin A (native, isolated from the marine sponge Axinella sp.).
T2 sequence: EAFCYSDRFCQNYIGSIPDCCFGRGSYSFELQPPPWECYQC

In data set [2] the target is full-length recombinant human Tyrosyl-DNA phosphodiesterase 1 (TDP1) (human) (UniProt Q9NUW8). The data set is described as follows: cell-based or functional assay.
The target in the next data set is TDP1 (Homo sapiens, UniProt Q9NUW8). The data set is described as follows: High-throughput biochemical assay for inhibition of TDP1 enzymatic activity (bioassay-guided fractionation). The following applies: comparison among peptide constituents of fractions A-D of Axinella sp. aqueous extract. Here is the method:
The sponge Axinella sp., (Voucher #ID 0CDN7410, NSC #C020686) was harvested at a depth of 40 m at the Thunderbolt reef, south-southwest of Cape Recife Nature Reserve, Port Elizabeth, South Africa. A voucher specimen for this collection is maintained at the Smithsonian Institution (Suitland, MD). Aqueous extracts of Axinella sp. were provided by the Natural Products Branch of the National Cancer Institute and were prepared as previously reported (McCloud, Molecules, 15(7): 4526-63 (2010)). The dried extract was reconstituted in water at a concentration of 10 mg/mL and then subjected to vacuum-assisted chromatography using Bakerbond C4 wide-pore media (Mallinckrodt Baker, Inc., Phillipsburg, NJ). Compounds were eluted using a stepwise methanol gradient of five column volumes (CV) each of 100% water, 40% methanol, 60% methanol and 100% methanol, and the resulting fractions were evaporated under vacuum and then lyophilized to dryness. A high-throughput biochemical assay for inhibition of TDP1 enzymatic activity was utilized to track fraction activity (Bermingham, et al., SLAS Discov., 2472555217717200 (2017)). […]

The target of another data set is trypsin (Bos taurus, UniProt P00760). As to conditions: native form, 1:20 enzyme to target protein by mass, overnight at 37° C.
The target in data set [3] is T3, human TDP1 complemented DT40 knockout whole cell extracts (hTDP1 WCE) (Homo sapiens, UniProt Q9NUW8).
T3 construct: expressed in transfected cells; host or cells: TDP1-/- DT40 (chicken B-lymphocyte) cells complemented with human TDP1; whole cell extract
Nature of the data set: TDP1 inhibition assay with radiolabeled oligonucleotide in whole cell extract. The format is biochemical. The following applies: 2 μg/mL hTDP1 WCE from TDP1-/- DT40 cells complemented with human TDP1.
Method: (§3) The reactions were carried out in a final volume of 10 μL in 1×LMP 1 reaction buffer (50 mM Tris-HCl, pH 7.5, 80 mM KCl, 2 mM EDTA, 1 mM DTT, 40 μg/mL BSA, 0.01% TWEEN 20) at room temperature for 15 minutes and terminated by adding 10 μ−L of 2×stop buffer (99.5% formamide, 10 mM EDTA, 0.01% methylene blue, 0.01% bromophenol blue).

In another data set the target is chymotrypsin (Bos taurus, UniProt P00766). The following applies: native form, 1:20 enzyme to target protein by mass, overnight at room temperature.
Data set [4] concerns the target pyroglutamate aminopeptidase (Pyrococcus furiosus, UniProt O73944).
Data set [5] is described as follows: Stability of recifin A to handling, solvents and RP-HPLC.
The target in another data set is T4, Δ147TDP1 (Homo sapiens, UniProt Q9NUW8).
T4 construct: a truncated catalytic domain of TDP1 lacking the N-terminal regulatory domain (Δ1-147)
Nature of the data set: FRET-based TDP1 enzymatic activity inhibition assay, N-terminally truncated TDP1. The format is biochemical. The protocol: (§1) FRET-based TDP1 enzymatic activity inhibition assays were carried out as previously described (Bermingham, et al., SLAS Discov., 2472555217717200 (2017)). Briefly, for Michaelis-Menten analysis, an eight-point FRET substrate concentration response was used (from 0.01-3 μM substrate) in the presence of 0, 0.2, 0.5, 1, and 2 μM recifin A. Quadruplicate reactions were setup in which a 1.25× concentration of either full-length TDP1 or Δ1-147TDP1 was diluted to 1× by the addition of a […] solution of substrate and recifin A to reach a final concentration of 0.5 nM TDP1 (full length or truncated) and the indicated substrate and recifin A concentration in 1× Phosphate Buffered Saline (PBS) pH 7.4, 80 mM potassium chloride, 1 mM TCEP, referred to as “1× TDP1 buffer.” After dilution these reactions were transferred to a black small volume 384-well plate (Greiner Bio-One, Monroe, NC). Fluorescence measurements (excitation: 520 nm, emission: 550 nm) were taken at 30 sec intervals for 1 h using a i3x SpectraMax plate reader (Molecular Devices, Sunnyvale, CA). Reaction progression curves for each condition were examined for linearity over the time course and the reaction rate for each condition was determined by linear regression using GraphPad Prism software (version 8.3.1, San Diego, CA). Reaction rates were replotted in terms of substrate concentration, and kinetic parameters for each recifin A treatment concentration were calculated by non-linear regression (GraphPad Prism) according to the following equation: […]
(§2) For IC50 determinations, a 12-point concentration response curve was prepared over a recifin A concentration range of 0-15 μM. This was accomplished by diluting a 5X stock solution of recifin A and TDP1 FRET substrate into a stock solution of 1.25× TDP1 buffer containing 0.625 nM full-length TDP1 or Δ147TDP1, bringing the final concentration to 1× TDP1 buffer, 0.5 nM enzyme (or a no enzyme control), 1 μM FRET substrate, and 0-15 μM recifin A. Reactions were setup in triplicate using the same plates and plate reader described above for the kinetic measurements. Reaction wells were read at 0 (T0) and 15 (T15) min after initiation. The T15 data was background corrected by subtracting T0 fluorescence measurements. Corrected data was normalized to a control with no enzyme present (0% activity) and a vehicle control (100% activity). Recifin A concentrations were converted to logio-values and normalized data were fitted to the following equation by nonlinear regression (least squares fit with a variable slope) and an IC50 value was calculated using GraphPad Prism software: […]

Data set [6] deals with T5, full-length TDP1 (Homo sapiens, UniProt Q9NUW8). The data set is described as follows: biochemical.
Method: as §3
The target of a further data set is carboxypeptidase Y (Saccharomyces cerevisiae, UniProt P00729). As to conditions: native form, 1:18 enzyme to target protein by mass, 20 minutes at room temperature.
Data set [7] addresses T5, full-length TDP1. Nature of the data set: FRET-based TDP1 enzymatic activity inhibition assay, full-length TDP1 (1x TDP1 buffer with TCEP). As to conditions: for effect on Vmax of full-length TDP1 / effect on Km of full-length TDP1: steady-state analysis; for effect on Km of full-length TDP1: sub-micromolar concentrations of recifin A. It is filed as biochemical. Further details: either full-length TDP1 or Δ1-147TDP1 was diluted to 1×. Here is the method:
as §1, §2

Data set [8] has as its target N-terminal truncated TDP1 (Δ147TDP1) (UniProt Q9NUW8). Nature of the data set: cell-based or functional assay.
[9] abbreviates: full-length TDP1, Michaelis-Menten analysis, 0-2 μM recifin A.

“Also recorded” adds a separate entry of the source. Bridge positions count the residues as written; N and C are the ends. Square brackets hold non-standard residues; d marks the D form. Ends that are not written are not given here. Peptide text beside a SMILES is read from it. pGlu = O=C1CC[C@@H](C(=O)O)N1

T4 sequence (Q9NUW8 148-608, stated change not applied): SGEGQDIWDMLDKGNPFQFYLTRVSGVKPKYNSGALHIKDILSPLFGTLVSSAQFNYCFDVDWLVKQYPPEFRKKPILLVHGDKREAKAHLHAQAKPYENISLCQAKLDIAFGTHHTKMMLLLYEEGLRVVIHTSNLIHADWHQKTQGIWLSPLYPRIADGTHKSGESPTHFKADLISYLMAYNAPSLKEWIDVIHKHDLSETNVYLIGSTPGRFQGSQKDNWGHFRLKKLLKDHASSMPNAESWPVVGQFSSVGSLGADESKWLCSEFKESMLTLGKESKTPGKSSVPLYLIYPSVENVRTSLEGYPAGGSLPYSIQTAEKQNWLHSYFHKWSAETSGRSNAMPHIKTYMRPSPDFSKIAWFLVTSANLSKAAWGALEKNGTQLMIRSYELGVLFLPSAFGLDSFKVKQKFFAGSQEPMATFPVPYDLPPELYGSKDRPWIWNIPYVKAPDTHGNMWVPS
full-length recombinant human Tyrosyl-DNA phosphodiesterase 1 (TDP1) (human), sequence (Q9NUW8 whole entry): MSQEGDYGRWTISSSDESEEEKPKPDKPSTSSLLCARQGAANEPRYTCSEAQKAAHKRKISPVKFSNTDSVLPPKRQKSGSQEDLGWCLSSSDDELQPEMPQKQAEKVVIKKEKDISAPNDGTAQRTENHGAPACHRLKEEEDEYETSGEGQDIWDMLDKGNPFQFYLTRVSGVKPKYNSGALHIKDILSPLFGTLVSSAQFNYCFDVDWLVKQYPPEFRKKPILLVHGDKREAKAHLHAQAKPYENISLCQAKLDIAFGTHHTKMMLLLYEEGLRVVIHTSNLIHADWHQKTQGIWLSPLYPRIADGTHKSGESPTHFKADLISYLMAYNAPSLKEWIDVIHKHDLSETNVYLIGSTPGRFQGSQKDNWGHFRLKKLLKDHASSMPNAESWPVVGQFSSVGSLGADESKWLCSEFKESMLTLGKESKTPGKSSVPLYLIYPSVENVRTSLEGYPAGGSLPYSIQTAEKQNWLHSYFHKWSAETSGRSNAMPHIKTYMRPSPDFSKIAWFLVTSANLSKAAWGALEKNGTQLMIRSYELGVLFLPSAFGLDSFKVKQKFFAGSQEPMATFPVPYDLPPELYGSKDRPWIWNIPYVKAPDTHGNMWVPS
T5 sequence (Q9NUW8 whole entry): as above
T1 sequence (Q9NUW8 whole entry): as above
pyroglutamate aminopeptidase, sequence (O73944 whole entry): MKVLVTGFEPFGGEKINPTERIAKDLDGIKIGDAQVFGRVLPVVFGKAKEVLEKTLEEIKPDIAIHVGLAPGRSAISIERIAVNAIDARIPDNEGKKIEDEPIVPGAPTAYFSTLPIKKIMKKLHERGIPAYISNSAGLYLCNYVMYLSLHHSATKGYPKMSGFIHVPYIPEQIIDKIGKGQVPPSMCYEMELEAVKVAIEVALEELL
N-terminal truncated TDP1 (Δ147TDP1), sequence (Q9NUW8 148-608, stated change not applied): as the sequence (Q9NUW8 148-608, stated change not applied) above
trypsin, sequence (P00760 24-246): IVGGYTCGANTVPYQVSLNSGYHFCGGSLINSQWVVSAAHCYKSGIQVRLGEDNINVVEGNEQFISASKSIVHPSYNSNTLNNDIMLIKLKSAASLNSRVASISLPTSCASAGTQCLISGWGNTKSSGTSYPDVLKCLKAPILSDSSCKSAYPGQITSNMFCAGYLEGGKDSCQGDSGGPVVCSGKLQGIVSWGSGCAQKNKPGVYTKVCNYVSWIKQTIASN
carboxypeptidase Y, sequence (P00729 112-532, species assumed): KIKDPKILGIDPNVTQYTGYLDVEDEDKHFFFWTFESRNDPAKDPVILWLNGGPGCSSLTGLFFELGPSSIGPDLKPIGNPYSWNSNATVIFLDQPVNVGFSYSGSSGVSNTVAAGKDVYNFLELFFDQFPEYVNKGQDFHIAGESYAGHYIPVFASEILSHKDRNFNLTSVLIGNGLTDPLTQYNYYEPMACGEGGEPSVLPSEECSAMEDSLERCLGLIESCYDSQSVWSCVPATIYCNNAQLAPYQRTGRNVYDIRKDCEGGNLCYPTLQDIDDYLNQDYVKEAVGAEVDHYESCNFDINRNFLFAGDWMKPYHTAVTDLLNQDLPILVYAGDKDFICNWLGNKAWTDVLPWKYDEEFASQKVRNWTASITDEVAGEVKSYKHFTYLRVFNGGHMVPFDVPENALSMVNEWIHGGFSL
TDP1, sequence (Q9NUW8 whole entry): as the sequence (Q9NUW8 whole entry) above
T3 sequence (Q9NUW8 whole entry): as above

For the compound `CC[C@H](C)[C@@H]1NC(=O)[C@H](Cc2ccc(O)cc2)NC(=O)[C@H](CC(N)=O)NC(=O)[C@H](CCC(N)=O)NC(=O)[C@@H]2CSSC[C@@H]3NC(=O)[C@H](CCC(=O)O)NC(=O)[C@H](Cc4c[nH]c5ccccc45)NC(=O)[C@@H]4CCCN4C(=O)[C@@H]4CCCN4C(=O)[C@@H]4CCCN4C(=O)[C@H](CCC(N)=O)NC(=O)[C@H](CC(C)C)NC(=O)[C@H](CCC(=O)O)NC(=O)[C@H](Cc4ccccc4)NC(=O)[C@H](CO)NC(=O)[C@H](Cc4ccc(O)cc4)NC(=O)[C@H](CO)NC(=O)CNC(=O)[C@H](CCCNC(=N)N)NC(=O)CNC(=O)[C@H](Cc4ccccc4)NC(=O)[C@H](CSSC[C@@H](C(=O)O)NC(=O)[C@H](CCC(N)=O)NC(=O)[C@H](Cc4ccc(O)cc4)NC3=O)NC(=O)[C@H](CSSC[C@H](NC(=O)[C@H](Cc3ccccc3)NC(=O)[C@H](C)N)C(=O)N[C@@H](Cc3ccc(O)cc3)C(=O)N[C@@H](CO)C(=O)N[C@@H](CC(=O)O)C(=O)N[C@@H](CCCNC(=N)N)C(=O)N[C@@H](Cc3ccccc3)C(=O)N2)NC(=O)[C@H](CC(=O)O)NC(=O)[C@@H]2CCCN2C(=O)[C@H]([C@@H](C)CC)NC(=O)[C@H](CO)NC(=O)CNC1=O` [Truncated, Recifin (3-42)] (H-AFCYSDRFCQNYIGSIPDCCFGRGSYSFELQPPPWECYQC-OH; disulfide 3-19, 9-37, 20-40), on FL-TDP1, the “TDP1 inhibitory activity (FRET assay)” value was “no TDP1 inhibitory activity” and the IC50 was greater than 10 µM.
For the compound N-terminal truncated TDP1 (Δ147TDP1), the “Km and Vmax of the Δ147TDP1 FRET assay” value in [1] was “recifin A had overlapping 95% confidence intervals for both Km and Vmax with the untreated controls, indicating that recifin A does not affect the enzymatic activity of truncated TDP1”.
As for Recifin (3-42) (peptide), the IC50 µM, FL-TDP1 FRET inhibition assay without TCEP in [2] was greater than 10 µM.
The same measure, in the same setting: the figure for [Ala10] recifin (peptide) is greater than 10 µM; for [Pro1] recifin (peptide) it is 0.69 µM.
Consider “[pGlu]EAFCYSDRFCQNYIGSIPDCCFGRGSYSFELQPPPWECYQC (disulfide 5-21, 11-39, 22-42) [recifin A]”, for which the “TDP1 inhibitory activity of Axinella sp. peptides/fractions” value on TDP1 is reported as “most active”. Further, on trypsin, the digestion with trypsin entry is “resistant”. Further, the “inhibition of TDP1 processing of the radiolabeled oligonucleotide in whole-cell extract” value in data set [3] was “retained the ability to inhibit”. The digestion with chymotrypsin entry on chymotrypsin was “resistant”. The “digestion with pyroglutamate aminopeptidase” value in data set [4] (native form, 2 microgram peptide to 0.2 milliunits enzyme, PBS pH 7.4, 24 hour at 37 C) is listed as “resistant”. The “digestion with pyroglutamate aminopeptidase: N-terminal pyroglutamate residue” value in [4] (same conditions in phosphate buffer containing 10 mM DTT) is reported as “fully removed”. In addition, in [5] (DTP extract preparation, drying under nitrogen gas at room temperature, freezing at -20° C., -80° C. and on dry ice, lyophilization, freezing and thawing), the activity after processing entry is listed as “still active”. Also, the “stability during RP-HPLC procedures” value in [5] (room temperature and 40° C., with and without 0.05% v/v TFA (pH approx. 2)) is on record as “stable”. In addition, the “stability in solvents and buffers” value in data set [5] (water, PBS pH 7.4, Tris HCl pH 8.0, methanol, acetonitrile, DMSO) is on record as “stable”. On FL-TDP1, this compound registered an IC50 of 1.63 µM. Besides, at Δ147TDP1 (FRET assay, TDP1 lacking N-terminal regulatory domain (Δ1-147)), the “effect on enzymatic activity of truncated TDP1 (Δ147TDP1)” value is “does not affect the enzymatic activity; also recorded: not affecting the activity”. In addition, at Δ147TDP1 (at the highest concentration (1500 nM), read-out: maximal inhibition of Δ147TDP1), the inhibition at 1.5 µM is roughly 20%. For the same compound, at Δ147TDP1 (Δ147TDP1 FRET assay), the “effect on Km of Δ147TDP1” value was “did not affect” and the “effect on Vmax of Δ147TDP1” value is reported as “did not affect”. For the same compound, the IC50 at full-length TDP1 [6] is 2400 nM. For the same compound, the “digestion with carboxypeptidase Y” value at carboxypeptidase Y is on record as “resistant”. In addition, on full-length TDP1 [7], inhibition was half-maximal at 190 nM (IC50), the “effect on Vmax of full-length TDP1” value is given as “modest increase” and the “effect on Km of full-length TDP1” value is “increased”. Moreover, at full-length TDP1 [7] (setting [9]), the “increase in Km for the substrate” value is given as “approximately 6 fold” and the “increase in observed Vmax” value was “approximately 1.6 fold”. On full-length TDP1 [7] (listed as Recifin A), the “effect on Km of full-length TDP1” value was “in-creased” and the “effect on Vmax of full-length TDP1” value was “in-creased”.
On to “[pGlu]EAFCYSDRFCQNYIGSIPDCCFGRGSYSFELQPPPWECYQC-OH (disulfide 5-21, 11-39, 22-42) [Synthetic, Recifin]”, for which, on FL-TDP1, the “TDP1 inhibitory activity (FRET assay)” value is recorded as “have TDP1 inhibitory activity” and it took 0.5 µM to reach half-maximal inhibition (IC50).
“full-length recombinant human Tyrosyl-DNA phosphodiesterase 1 (TDP1)”: in data set [1], the “effect on the observed Vmax, FRET steady-state kinetics” value is reported as “approximately 1.6-fold higher” and the “recifin A-dependent increase in the Km for the substrate, FRET steady-state kinetics” value is recorded as “approximately 6-fold higher”.
With “recifin A (native, isolated from the marine sponge Axinella sp.) (peptide)”, in data set [2], the IC50 µM, FL-TDP1 FRET inhibition assay without TCEP worked out at 1.63 µM; the IC50, inhibition of TDP1 cleavage of a 5'-radiolabeled oligonucleotide DNA substrate containing a 3'-phosphotyrosyl residue (gel assay) came out at 2400 nM; the apparent IC50, FRET-based TDP1 enzymatic activity inhibition assay turned out to be 190 nM. Also, the maximal inhibition of enzymatic activity, FRET assay in data set [8] was found to be 20%.
Take synthetic recifin A (peptide): in data set [2], the IC50 µM, FL-TDP1 FRET inhibition assay without TCEP amounted to 0.5 µM.

Broadly, the IC50 is the midpoint of a concentration-inhibition curve. Higher therefore signals lower potency. In general, inhibition refers to the share of the control response that was lost under treatment.
